From ChEMBL document CHEMBL3272018, “Synthesis of aziridinylallylaminophosphine oxides and sulfides as potential adjuvant cancer chemotherapeutic agents” (J Med Chem, 1976)

Key:
[1] = test system: Musca domestica; assay: Toxicity in male house fly assessed as sterility; assay type: organism-based; details: in vivo
[2] = test system: Musca domestica; assay: Toxicity in mixed sex house flies assessed as sterility at 1% administered in sugar relative to control; assay type: organism-based; details: in vivo, po

`C=CCN(C1=CCCCC1)P(=O)(N1CC1C)N1CC1C` (configuration not stated) was tested, and the Activity [1] was “Non-toxic” and the Activity [2] was 82%.
